Experimental data: patent US20230134843A1, “TREATMENT OF STEM CELL DEFICIENCY” (OSPEDALE SAN RAFFAELE S.R.L., priority 2020, published 2023)
Entries after “also recorded” stand apart in the source; their conditions may differ.

Tested on: conjunctival cells
Assay: Conjunctival and corneal epithelial cell identification (CK8, CK19, CK12 immunofluorescence), stem cell deficiency model
Type: in vivo, mice
Settings: Fosaprepitant 1 mg/mL (FOSA 1)
Source text: Eight-week-old male mice C57BL6/N (Charles River, Calco, Italy) (WT mice, n=18) and Tac1-deficient B6.Cg-Tac1tm1Bbm/J (Jackson Laboratories, Bar Harbor, Me., USA) (TAC1-KO mice, n=18) were used in all experiments. TAC1-KO mice are homozygous null for the Tac1 gene. […] The corneal thickness and transparency as well as the corneal nerve length are similar to C57BL/6 mice [Barbariga M, Rabiolo A, Fonteyne P, Bignami F, Rama P, Ferrari G. The effect of aging on nerve morphology and substance P expression in mouse and human corneas. Investig Ophthalmol Vis Sci 2018; 59:5329-35. https://doi.org/10.1167/iovs.18-24707.]. Each animal was anesthetized with an intraperitoneal injection of tribromoethanol (250 mg/kg) and a topical anesthetic was applied to their ocular surface prior to the surgical procedure. Total disepithelization was performed based on the model previously described [Amirjamshidi H, Milani B Y, Sagha H M, Movahedan A, Shafiq M A, Lavker R M, et al. Limbal fibroblast conditioned media: A non-invasive treatment for limbal stem cell deficiency. Mol Vis 2011; 17:658], using a blunt spatula to scrap the entire corneal epithelium, including the limbus. Then, fluorescein staining was used to confirm complete removal of the corneal epithelium under the blue light of a slit-lamp microscope. After wounding, eyes were treated with ophthalmic moxifloxacin 1 time/day for 1 week to […]. Fourteen days after disepithelization mice were euthanized using carbon dioxide inhalation and subsequent cervical dislocation. Corneas were collected for immunostaining and western blot analysis. […]
The presence of conjunctival epithelial cells was evaluated by immunofluorescence. […] A negative control using only the secondary antibody was used to establish a fluorescence threshold. Then, the fluorescent intensity was quantified in terms of the percentage of positive area (% area) in the epithelium.

With `C[C@@H](O[C@H]1OCCN(Cc2nc(=O)n(P(=O)(O)O)[nH]2)[C@H]1c1ccc(F)cc1)c1cc(C(F)(F)F)cc(C(F)(F)F)c1` [Fosaprepitant, [3-{[(2R,3S)-2-[(1R)-1-[3,5-bis(trifluoromethyl)phenyl]ethoxy]-3-(4-fluorophenyl)morpholin-4-yl]methyl}-5-oxo-2H-1,2,4-triazol-1-yl]phosphonic acid] the “CK12 expression in the corneal epithelium compared to WT” value (p<0.001) was “increase”, the “CK8 conjunctival cells infiltrating the cornea compared to WT” value (p<0.01) was “Reduced number; also recorded: reduction” and the “CK19 conjunctival cells compared to WT” value (p<0.05) was “significant decrease; also recorded: reduction”.
